Measurements: patent US10081615B2, “Sulfamate derivative compounds for use in treating or alleviating pain” (Bio-Pharm Solutions Co., Ltd., priority 2013, dated 2018)
Where two headings read alike, the source gives them in different places.

What was measured:
[1] = system: acetic acid-induced writhes; assay: Writhing test (acetic acid); assay type: in vivo, ICR mice; conditions: mouse, oral
Protocol: To examine the pain relief effect of the sulfamate derivative compounds, a writhing test was referring to Fischer, L. G. et al. (2008).
ICR mice (male, 24-28 g; Orient Bio, Korea) were habituated before test in test room for 1 hour. Animals were fasted for 2 hr before administration of compounds. […] All compounds were dissolved in a vehicle of 30% (v/v) PEG 400 or 20% (v/v) Tween 80. The control group was treated with the vehicle without compounds.
[…] Animals were habituated in the cage for 5 min. 5 min after habituation, the number of writhes (abdominal constriction) was counted for 15 minutes referring to Korzeniewska-Rybicka, I. et al. (1998) and compared with that of the control.

SNL model = assay: Antiallodynic activity in the Chung model (SNL, Spinal Nerve Ligation; von Frey); assay type: in vivo, Sprague-Dawley rats
Protocol: Male Sprague-Dawley rats (200-220 g, Orient Bio, Korea) were habituated for 1 week before the experiment and allowed free access to food and water throughout the experimentation. Room temperature and humidity were maintained at 24±2° C. and 50±10%, respectively. The neuropathic surgery (SNL, Spinal Nerve Ligation) model was done as described in Kim and Chung (1992). Briefly, an animal was put under gaseous anesthesia with isoflurane and NO2 with a 4:4 flow ratio. The left lumbar spinal nerves L5 and L6 were isolated and tightly ligated with 4-0 silk thread. The wound was treated with a gentamicin antibiotic solution (4 mg/kg, 4 ul/g by bodyweight), and the wound muscle was closed with Catgut® chrome 4/0 thread and the skin was closed with Dafilon 4/0 thread. Sham controls were prepared in the same manner with the spinal nerves were exposed, but no ligated L5 and L6 nerves. Preparation of the vehicle controls were identical to the group treated with compound, except for administration of vehicles without compound in the vehicle control group.
Tactile sensitivity (mechanical allodynia) was evaluated using von Frey monofilaments before and after treatment and animals the animals were included in the study only if the withdrawal threshold value was less than 4 g. One week after surgery, SNL-operated animals (n=4˜6), sham-operated animals (n=4˜10) and vehicle-operated animals (n=4˜13) were tested for tactile sensitivity with von Frey monofilaments with 3 trials in each animal. All animals were placed in a stainless steel mesh chamber and habituated for 30 min in the test cage. The tactile sensitivity for ipsilateral hind paw was measured using the up-and-down method (Dixon, 1980) with seven von Frey monofilaments (0.4, 1, 2, 4, 6, 8, and 15 g) in 3 trials. The tactile sensitivity test was followed by Dixon's method (Dixon, 1980). The 50% paw withdrawal threshold for each paw was calculated using the following formula: [Xth] log=[vFr] log+ky where [vFr] is the force of the last von Frey used, k=0.2249 which is the average interval (in log units) between the von Frey monofilaments, and y is a value that depends upon the pattern of withdrawal responses (Dixon, 1980).
All animals were fasted for 18 h before the administration of the compounds. The antiallodynic effect of the compounds were evaluated at the various doses (n=5˜6), orally administered in a volume of 5 ul/g by bodyweight in a vehicle of 30% (v/v) PEG 400 (Example 7) or 20% (v/v) Tween 80 (Examples 5 and 6) or saline. […]
The relative values compared to the sham group (% control) were calculated and are shown in Table 5, which show an antiallodynic effect of the test compounds in the SNL model in rats.

[2] = system: Post operation-induced pain model; assay: Antiallodynic activity on post operative pain-induced pain model (von Frey); assay type: in vivo, Sprague-Dawley rats; conditions: rat, intraperitoneal, 18.9 mg/kg administered, time not given
Protocol: Male Sprague-Dawley rats (Orient Bio, Korea), 300-320 g, total of 201 rats were used (details in Table 7). Rats were habituated at least 3 days before surgery and free access to food and water (room temperature and humidity were maintained at […] and 50±10%, respectively). The process of performing the post-operation model's surgery was adapted from Brennan et al (1996). At first, rats with allodynia (threshold valueless than 8 g) were excluded in Pre-von Frey Test. During the post-operation surgery, rats were anesthetized under gaseous anesthesia with 2% isoflurane. Rats were laid face down on a plate fixed at 37° C. to prevent against hypothermia. The ipsilateral plantar aspect (left side) of the hind paw was prepared in a sterile manner with a 10% povidone-iodine solution. A longitudinal incision (1 cm) (FIG. 2-A) was made with a blade (number 11) through the skin and fascia of the ipsilateral plantar aspect of the foot, starting from 0.5 cm below the proximal edge of the heel and extending toward the toes. Rats' plantar muscles were elevated and incised longitudinally (FIG. 2-B). After hemostasis with gentle pressure, the skin was opposed with 2 mattress sutures (4-0 Dafilon) (FIG. 2-C). The wound site was covered with a 10% povidone-iodine solution gauze and injected with antibiotics (gentamicin, 8 mg/kg, ip). The sutures were removed under halothane anesthesia approximately 30 hours later, at the end of post-operative day 1.
After 2-3 days of recovery, rats with a good response (threshold less than 4 g) in Pre-von Frey Test were selected. According to this response, we made three groups with each group having equal average responses: Group 1, post-operation and drug treated; Group 2, post-operation and vehicle treated; Group 3, no post-operation and vehicle treated. In this study, Group 3 was the sham control (positive) group. The group 2 was used to check for possible failures to generate post-operative pain.
For efficacy measure, the threshold value of group C was assigned 100% efficacy, and the percentage of the threshold values of group A compared to group C (for each different dose level) were calculated as the efficacies. Base on these efficacy values, ED50 was calculated using log fitting. If there was no clear ED50, then we marked the percent efficacy at the highest tested dose or larger than highest tested dose.
For pain threshold test, all animals were placed in a stainless steel meshed chamber and habituated for 30 min in the test box. The tactile sensitivity of the ipsilateral hind paw was measured using the up-and-down method (Dixon, 1980) with seven von Frey monofilaments (0.4, 1, 2, 4, 6, 8, and 15 g) using 3 trials. The 50% paw withdrawal threshold for each paw was calculated using the following formula: [Xth] log=[vFr] log+ky, where [vFr] is the force of the last von Frey filament used, k=0.2249 which is the average interval (in log units) between the von Frey monofilaments, y which is a value that depends upon the pattern of withdrawal responses, and Xth which is the threshold value (Dixon, 1980).
Drugs were dissolved 30% PEG400 for example 60, 0.9% saline for Pregabalin, 20% Tween80 for Tylenol, 0.9% saline for Topiramate. These vehicles were selected depending on the compound's solubility. Intraperitoneal injection (5 μl/g) was done for all drugs.
The relative values compared to the sham (% control) were calculated and shown in Table 8, which show an antiallodynic effect of the compound of examples on Post operation-induced pain model in rats.

CFA-induced pain model = assay: Antiallodynic activity on Complete Freund's Adjuvant (CFA)-induced inflammatory pain model (von Frey); assay type: in vivo, Sprague-Dawley rats; conditions: Rattus norvegicus, ip, read-out: CFA model: effect (%) compared to control
Protocol: Male, Sprague-Dawley rats (200-220 g, Nara Bio, Korea) were habituated for 1 week before surgery and allowed free access to food and water throughout the experimentation. Room temperature and humidity were maintained at 24±2° C. and 50±10%, respectively.
CFA-induced inflammatory pain was induced by the procedure of Nagakura et al. (2003) and Gregory P. et al. (2010) with minor modifications. CFA (sigma, USA) was injected into the left plantar with a 100 ul volume under gaseous anesthesia with isoflurane and NO2 with a 4:4 flow ratio. Sham controls were injected with 100 ul of saline and preparation of the vehicle controls were identical to the group treated with compound, except for administration of vehicles without compound in the vehicle control group.
Tactile sensitivity (mechanical allodynia) was evaluated using von Frey monofilaments before and after treatment, and the animals were included in the study only if the withdrawal threshold value was less than 4 g. One week after surgery, CFA-infused animals (n=4˜6), sham-operated animals (n=12), and vehicle-operated animals (n=17) were tested for tactile sensitivity with von Frey monofilaments, with 3 trials for each animal. All animals were placed in a stainless steel mesh chamber and habituated for 30 min in the test cage. The tactile sensitivity for the ipsilateral hind paw was measured using the up-and-down method (Dixon, 1980) with seven von Frey monofilaments (0.4, 1, 2, 4, 6, 8, and 15 g) in 3 trials. The tactile sensitivity test was followed by Dixon's method (Dixon, 1980). The 50% paw withdrawal threshold for each paw was calculated using the following formula: [Xth] log=[vFr] log+ky where [vFr] is the force of the last von Frey used, k=0.2249 which is the average interval (in log units) between the von Frey monofilaments, and y is a value that depends upon the pattern of the withdrawal responses (Dixon, 1980).
The antiallodynic effect of the compound of Example was evaluated at the doses of 10, 30 and 60 mg/kg (n=4˜6), and were intraperitoneally administered in a volume of 5 ul/g by bodyweight in a vehicle of 30% (v/v) PEG. […]
The relative values compared to the sham (% control) were calculated and are shown in Table 4, which show an antiallodynic effect of the compound of examples in the CFA-induced pain model in rats.

[3] = Rattus norvegicus, po, read-out: SNL model: effect (%) compared to control, rat, oral, 3.5 mg/kg administered, time not given

Structure (SMILES) | response vs control in vivo at 3.5 mg/kg (SNL model; [3]) [%] | melting point [°C] | further results
CC1(C)Oc2ccccc2C(COS(N)(=O)=O)O1 (racemic) [Example 3, (2,2-dimethyl-4H-benzo[d][1,3]dioxin-4-yl))methyl sulfamate] |  |  | Writh test: effect (%) compared to control ([1]; 80 mg/kg administered, 0.5 h): (63.9%, 0.5 h); response vs control in vivo at 3.5 mg/kg (SNL model; rat, oral, 3.5 mg/kg administered, 0.5 h, read-out: SNL model: effect (%) compared to control): 35%
CC1(C)Oc2ccccc2[C@H](COS(N)(=O)=O)O1 [Example 1, ((R)-2,2-dimethyl-4H-benzo[d][1,3]dioxin-4-yl)methyl sulfamate] |  |  | ED50 ([1]; 0.25 h, read-out: Writh test: ED50): 56.8 mg/kg; ED50 (SNL model; rat, oral, 1 h, read-out: SNL model: ED50): 9.9 mg/kg
CC1(C)Oc2ccc(Cl)cc2[C@@H](COS([NH-])(=O)=O)O1.[Na+] [Example 62, Sodium (S)-(((6-chloro-2,2-dimethyl-4H-benzo[d][1,3]dioxin-4-yl)methoxy)sulfonyl)amide] | 32.6 | 133.8 to 135.3 | 
CC1(C)Oc2ccc(Cl)cc2C(COS([NH-])(=O)=O)O1.[Na+] (stereo not shown) [Example 63, Sodium (((6-chloro-2,2-dimethyl-4H-benzo[d][1,3]dioxin-4-yl)methoxy)sulfonyl)amide] | 32.9 | 129.3 to 132.3 | Post Operation: effect (%) compared to control [2]: (26.6%); response vs control in vivo at 25 mg/kg (CFA-induced pain model): 16.9%
[NH-]S(=O)(=O)OC[C@@H]1OC2(CCCC2)Oc2ccccc21.[Na+] [Example 64, Sodium (R)-(((4H-spiro[benzo[d][1,3]dioxine-2,1′-cyclopentan]-4-yl)methoxy)sulfonyl)amide] | 22.5 | 132.9 to 134.9 | 
[NH-]S(=O)(=O)OCC1OC2(CCCC2)Oc2ccccc21.[Na+] (stereo not shown) [Example 66, Sodium (((4H-spiro[benzo[d][1,3]dioxine-2,1′-cylcopentan]-4-yl)methoxy)sulfonyl)amide] |  | 145.5 to 148.9 | response vs control in vivo at 3.5 mg/kg (SNL model; Rattus norvegicus, po, 0.5 h, read-out: SNL model: effect (%) compared to control, rat, oral, 3.5 mg/kg administered, 0.5 h): 59.5%
[NH-]S(=O)(=O)OCC1OC2(CCCC2)Oc2ccc(Cl)cc21.[Na+] (stereo not shown) [Example 67, Sodium ((6-chloro-(4H-spiro[benzo[d][1,3]dioxine-2,1′-cyclopentan]-4-yl)methoxy)sulfonyl)amide] | 49.1 | 68.6 to 72.3 | 
